{"source": "patent US20250049090A1", "about": "“A NUTRITIONAL SUPPLEMENT FOR IMPROVED GUT HEALTH” (Haleon US Holdings LLC, priority 2021, published 2025)", "key": {"[1]": {"conditions": "healthy volunteers under high stress or when diarrhoea was induced; cited from earlier work"}, "[2]": {"conditions": "ZnC supplementation 150 mg/day for 1 week; cited from earlier work"}, "[3]": {"system": "human gut microbiota", "assay": "In vitro gut model batch culture fermentation, organic acid production by gas chromatography", "type": "cell-based", "conditions": "'except' = not significantly elevated", "protocol": "(§1) In vitro gut model batch culture fermentations were run for 72 hours. Samples were collected for bacterial enumeration and organic acid production through fluorescent in situ hybridisation combined with flow cytometry and gas chromatography, respectively. Overall, the main findings were that the ZnC supplementation combined with WD increased in Bifidobacterium spp., and Clostridium histolyticum group but this finding was not shown in the vessels consisting of the ZnC components only. […] Optimising the dose and substrate availability is important to ensure homeostasis and prevent potential pathogenic bacterial growth. […]\n(§2) A 750 μl sample was collected from each vessel at timepoints 0, 8, 24, 48 and 72 hours. […] The subsequent pellet was used for bacterial enumeration through fluorescence in situ hybridisation flow-cytometry (FISH-FCM) and 500 μl of supernatant used to assess organic acid production via gas chromatography. […]\n(§3) All statistical results were analysed in Prism 8 version 8.4.0 (GraphPad Prism 8, San Diego, California, USA). The FISH-FCM and organic acid production were analysed using two-way mixed ANOVA to compare different test substrates and time points. […]"}, "[4]": {"system": "total bacteria", "assay": "In vitro gut model batch culture fermentation, FISH-FCM enumeration of total bacteria (Eub)", "type": "cell-based, human faecal bacteria", "conditions": "until 48 h, WD experiment; 'except' = not elevated", "protocol": "as §1, §2, §3"}}}
{"substance": "Zinc carnosine [ZnC]", "values": [{"measurement": "intestinal barrier function", "setting": "[1]", "value": "maintained or improved"}, {"measurement": "UC clinical outcomes and remission", "setting": "[2]", "value": "improve"}, {"measurement": "propionate compared to baseline", "setting": "[3]; 24, 48 and 72 h, WD experiment", "value": "except"}, {"measurement": "acetate compared to baseline", "setting": "[3]; 72 h, PHGG experiment", "value": "except"}, {"measurement": "total bacteria counts elevated", "setting": "[4]", "value": "except"}]}
